Each structure is given as a SMILES string. Converted amounts (≈) assume the structure as drawn. Bounds are passed on as bounds.

The first assay concerns Mtb mc^27902 pMV261.
Experiment: not given
In kind it is cell-based, Mycobacterium tuberculosis.
Conditions: not given
In the case of `CC(C)CCOc1ccc(NC(=S)NC2C3CC4CC(C3)CC2C4)cc1` (stereo not shown) [Ad-2-ISO, 1-((1r,3r,5r,7r)-adamantan-2-yl)-3–(4-(isopentyloxy)phenyl)thiourea], the “TDM and glucose monomycolate levels (TLC)” value was “decrease in TDM and glucose monomycolate”; the “effect on mycolic acid biosynthesis (FAMEs/MAMEs, TLC/autoradiography)” value is “more significant reduction in radiolabel incorporation”.

The same assay, now with this note: at the highest concentrations; […].
As for `CC(C)CCOc1ccc(NC(=S)NC2C3CC4CC(C3)CC2C4)cc1` (stereo not shown) [Ad-2-ISO, 1-((1r,3r,5r,7r)-adamantan-2-yl)-3–(4-(isopentyloxy)phenyl)thiourea], the “TMM levels (TLC)” value is recorded as “slight increase in the TMM levels”.

A further assay deals with Mtb mc^27902 pMV261. The assay is described as follows: microbe, parasite or virus in culture. Type of assay: cell-based. The conditions noted are these: Mycobacterium tuberculosis; mc^27902 pMV261; REMA; read-out: Mtb MIC95.
Turning to `CC(C)CCOc1ccc(NC(=S)NC2C3CC4CC(C3)CC2C4)cc1` (stereo not shown) [Ad-2-ISO, 1-((1r,3r,5r,7r)-adamantan-2-yl)-3–(4-(isopentyloxy)phenyl)thiourea], the MIC came to 2.88 µg/mL (≈ 7.73 µM).

The subject of a further assay is AC10 hybrid adult ventricular cardiomyocytes. The assay is described as follows: MTS cytotoxicity assay, cardiomyocytes. In kind it is cell-based. The conditions noted are these: Homo sapiens, AC10 cardiac, 96 h, read-out: MTS percentage survival @ 100 µM. (Tetrazolium dyes change colour on reduction, which living cells bring about.)
Take `CC(C)CCOc1ccc(NC(=S)NC2C3CC4CC(C3)CC2C4)cc1` (stereo not shown) [Ad-2-ISO, 1-((1r,3r,5r,7r)-adamantan-2-yl)-3–(4-(isopentyloxy)phenyl)thiourea]: the viability at 100 µM was determined as 51.1 ± 17.7%.

Another assay deals with P. aeruginosa DSM 19880. The assay is described as follows: Non-mycobacterial REMA assay. Type of assay: cell-based. The conditions noted are these: Pseudomonas aeruginosa, DSM19880, read-out: Minimum inhibitory concentration 95%.
As for `CC(C)CCOc1ccc(NC(=S)NC2C3CC4CC(C3)CC2C4)cc1` (stereo not shown) [Ad-2-ISO, 1-((1r,3r,5r,7r)-adamantan-2-yl)-3–(4-(isopentyloxy)phenyl)thiourea], the MIC is greater than 32 µg/mL.

In another assay the test system is S. aureus NCTC 2981. The assay is described as follows: Non-mycobacterial REMA assay. The conditions noted are these: Staphylococcus aureus, NCTC2981, read-out: Minimum inhibitory concentration 95%. In kind it is cell-based.
For `CC(C)CCOc1ccc(NC(=S)NC2C3CC4CC(C3)CC2C4)cc1` (stereo not shown) [Ad-2-ISO, 1-((1r,3r,5r,7r)-adamantan-2-yl)-3–(4-(isopentyloxy)phenyl)thiourea], the MIC was greater than 32 µg/mL.

The test system of a further assay is E. faecalis NCTC 775. Description: Non-mycobacterial REMA assay. The conditions noted are these: Enterococcus faecalis, NCTC775, read-out: Minimum inhibitory concentration 95%. Type of assay: cell-based.
With `CC(C)CCOc1ccc(NC(=S)NC2C3CC4CC(C3)CC2C4)cc1` (stereo not shown) [Ad-2-ISO, 1-((1r,3r,5r,7r)-adamantan-2-yl)-3–(4-(isopentyloxy)phenyl)thiourea], the MIC was greater than 32 µg/mL.

The subject of a further assay is S. pyogenes NCTC 8198. Description: Non-mycobacterial REMA assay. The conditions noted are these: Streptococcus pyogenes, NCTC8198, read-out: Minimum inhibitory concentration 95%. In kind it is cell-based.
Take `CC(C)CCOc1ccc(NC(=S)NC2C3CC4CC(C3)CC2C4)cc1` (stereo not shown) [Ad-2-ISO, 1-((1r,3r,5r,7r)-adamantan-2-yl)-3–(4-(isopentyloxy)phenyl)thiourea]: the MIC was greater than 32 µg/mL.

Another assay concerns B. cereus NCTC 7464. Description: Non-mycobacterial REMA assay. The conditions noted are these: Bacillus cereus, NCTC7464, read-out: Minimum inhibitory concentration 95%. In kind it is cell-based.
For the compound `CC(C)CCOc1ccc(NC(=S)NC2C3CC4CC(C3)CC2C4)cc1` (stereo not shown) [Ad-2-ISO, 1-((1r,3r,5r,7r)-adamantan-2-yl)-3–(4-(isopentyloxy)phenyl)thiourea], the MIC is greater than 32 µg/mL.

Another assay has as its system E. faecium NCTC 7171. Description: Non-mycobacterial REMA assay. The conditions noted are these: Enterococcus faecium, NCTC7171, read-out: Minimum inhibitory concentration 95%. Type of assay: cell-based.
Consider `CC(C)CCOc1ccc(NC(=S)NC2C3CC4CC(C3)CC2C4)cc1` (stereo not shown) [Ad-2-ISO, 1-((1r,3r,5r,7r)-adamantan-2-yl)-3–(4-(isopentyloxy)phenyl)thiourea], for which the MIC is greater than 32 µg/mL.

Another assay deals with K. pneumoniae NCTC 9633. The assay is described as follows: Non-mycobacterial REMA assay. The conditions noted are these: Klebsiella pneumoniae, NCTC9633, read-out: Minimum inhibitory concentration 95%. Type of assay: cell-based.
In the case of `CC(C)CCOc1ccc(NC(=S)NC2C3CC4CC(C3)CC2C4)cc1` (stereo not shown) [Ad-2-ISO, 1-((1r,3r,5r,7r)-adamantan-2-yl)-3–(4-(isopentyloxy)phenyl)thiourea], the MIC is greater than 32 µg/mL.

The next assay concerns RAW264.7 murine macrophage cells. Description: cells. Type of assay: cell-based. The conditions noted are these: Mus musculus, RAW264.7, 96 h, RAW264.7 macrophage; 100 µM; 96 h; read-out: MTS percentage survival @ 100 µM.
In the case of `CC(C)CCOc1ccc(NC(=S)NC2C3CC4CC(C3)CC2C4)cc1` (stereo not shown) [Ad-2-ISO, 1-((1r,3r,5r,7r)-adamantan-2-yl)-3–(4-(isopentyloxy)phenyl)thiourea], the viability at 100 µM was 22.5 ± 0.9%.

The same assay, now with this note: Mus musculus; RAW264.7 macrophages; 0 to 100 µM; read-out: IC50 (cell viability, MTS assay).
Broadly, the IC50 is the concentration that inhibits the measured activity by half. Turning to `CC(C)CCOc1ccc(NC(=S)NC2C3CC4CC(C3)CC2C4)cc1` (stereo not shown) [Ad-2-ISO, 1-((1r,3r,5r,7r)-adamantan-2-yl)-3–(4-(isopentyloxy)phenyl)thiourea], the 50% inhibitory concentration (IC50) came out at 95.3 µM.

Another assay relates to Mtb mc^27902 pMV261.
Experiment: not given
In kind it is cell-based, Mycobacterium tuberculosis. The conditions noted are these: in the presence of glucose; 37 °C, 30 min.
Take `CC(C)CCOc1ccc(NC(=S)NC2C3CC4CC(C3)CC2C4)cc1` (stereo not shown) [Ad-2-ISO, 1-((1r,3r,5r,7r)-adamantan-2-yl)-3–(4-(isopentyloxy)phenyl)thiourea]: the “efflux of EtBr” value is reported as “significantly increased the overall efflux of EtBr”.

Another assay has as its system E. coli K12. The assay is described as follows: Non-mycobacterial REMA assay. The conditions noted are these: Escherichia coli, read-out: Minimum inhibitory concentration 95%. Type of assay: cell-based. On the procedure:
(§1) Bacterial minimum inhibition concentrations (MIC) were determined using the Resazurin Microtiter Assay (REMA) method according to Palomino et al.[28] Stock solutions of the tested compounds were prepared in sterile dimethyl sulfoxide (DMSO), then diluted in 7H9OPALPen^1Cyc^10(Kan^25) to obtain a final drug concentration range of 32–0.032 μg/mL. A suspension of the test Mycobacterium was cultured in 7H9OPALPen^1Cyc^10(Kan^25) containing 0.05% v/v Tween^80 for one week at 37 °C, 5% CO2. The bacterial suspension was adjusted to 0.5 McFarland and diluted in 7H9OPALPen^1Cyc^10(Kan^25) 1:25. 100 μL of the inoculum was added to each well of a 96-well microplate together with 100 μL of the compound titration. The plate was incubated at 37 °C, 5% CO2. After 5 days, 10.5 μL 0.1% (w/v) sterile resazurin (solubilised in sterile PBS containing 0.02% v/v Tween^80) was added. Reduced resazurin was detected using fluorescence (Ex/Em 530/590 nm) in a FLUOstar Optima, BMG Labtech. All titre measurements were plotted in SigmaPlot™ and 4-parameter logistic (4PL) model regressions conducted. The relative MIC95 of each curve was calculated and averaged (Table 1). Testing was performed in duplicate with two independent biological repeats. […] Though, for these cultures, dilutions were performed at 1:125 prior to inoculation of the plate and incubation for 4 h (Supplementary Table 3). Known antitubercular agents used in this study were rifampicin (RIF), isoniazid (INH), ISO, EMB, ethionamide (ETH), linezolid (LZD), delamanid (DEL) and moxifloxacin (MOX).
`CC(C)CCOc1ccc(NC(=S)NC2C3CC4CC(C3)CC2C4)cc1` (stereo not shown) [Ad-2-ISO, 1-((1r,3r,5r,7r)-adamantan-2-yl)-3–(4-(isopentyloxy)phenyl)thiourea]: the MIC was greater than 32 µg/mL.

The next assay has as its system S. enterica NCTC 6754. The assay is described as follows: Non-mycobacterial REMA assay. The conditions noted are these: Salmonella enterica, NCTC6754, read-out: Minimum inhibitory concentration 95%. Type of assay: cell-based. On the procedure: as §1
Turning to `CC(C)CCOc1ccc(NC(=S)NC2C3CC4CC(C3)CC2C4)cc1` (stereo not shown) [Ad-2-ISO, 1-((1r,3r,5r,7r)-adamantan-2-yl)-3–(4-(isopentyloxy)phenyl)thiourea], the MIC is greater than 32 µg/mL.

A further assay has as its system HepG2 human liver cancer cell line. Description: MTS cytotoxicity assay, liver cells. In kind it is cell-based. The conditions noted are these: 96 h, read-out: MTS percentage survival @ 100 µM.
Take `CC(C)CCOc1ccc(NC(=S)NC2C3CC4CC(C3)CC2C4)cc1` (stereo not shown) [Ad-2-ISO, 1-((1r,3r,5r,7r)-adamantan-2-yl)-3–(4-(isopentyloxy)phenyl)thiourea]: the viability at 100 µM is 13.4 ± 5.1%.

The next assay relates to S. agalactiae NCTC 8181. Description: Non-mycobacterial REMA assay. In kind it is cell-based. The conditions noted are these: Streptococcus agalactiae, NCTC8181, read-out: Minimum inhibitory concentration 95%.
Consider `CC(C)CCOc1ccc(NC(=S)NC2C3CC4CC(C3)CC2C4)cc1` (stereo not shown) [Ad-2-ISO, 1-((1r,3r,5r,7r)-adamantan-2-yl)-3–(4-(isopentyloxy)phenyl)thiourea], for which the MIC is greater than 32 µg/mL.

A further assay concerns Mtb mc^27902 pMV261. The assay is described as follows: Synergy (two-drug checkerboard style) assay. In kind it is cell-based, Mycobacterium tuberculosis. The conditions noted are these: in combination with RIF.
With `CC(C)CCOc1ccc(NC(=S)NC2C3CC4CC(C3)CC2C4)cc1` (stereo not shown) [Ad-2-ISO, 1-((1r,3r,5r,7r)-adamantan-2-yl)-3–(4-(isopentyloxy)phenyl)thiourea], the FICI was 0.52.

The next assay deals with E. cloacae NCTC 10005. Description: Non-mycobacterial REMA assay. Type of assay: cell-based. The conditions noted are these: Enterobacter cloacae, NCTC10005, read-out: Minimum inhibitory concentration 95%.
`CC(C)CCOc1ccc(NC(=S)NC2C3CC4CC(C3)CC2C4)cc1` (stereo not shown) [Ad-2-ISO, 1-((1r,3r,5r,7r)-adamantan-2-yl)-3–(4-(isopentyloxy)phenyl)thiourea]: the MIC was greater than 32 µg/mL.

A further assay relates to A. baumannii NCTC 12156. The assay is described as follows: Non-mycobacterial REMA assay. Type of assay: cell-based. The conditions noted are these: Acinetobacter baumannii, NCTC12156, read-out: Minimum inhibitory concentration 95%.
In the case of `CC(C)CCOc1ccc(NC(=S)NC2C3CC4CC(C3)CC2C4)cc1` (stereo not shown) [Ad-2-ISO, 1-((1r,3r,5r,7r)-adamantan-2-yl)-3–(4-(isopentyloxy)phenyl)thiourea], the MIC was greater than 32 µg/mL.

The record behind these values is publication PMC12096669, “Structural isomerisation affects the antitubercular activity of adamantyl-isoxyl adducts” (Journal of Enzyme Inhibition and Medicinal Chemistry, 2025).
